# US20090326037A1 (priority 2005, published 2009)
# “And” between values parts separate entries of the source, which are not always exact repeats. Equal entries are not always repeated.
# Tested on: influenza A/Singapore/1/57 virus
# Assay: microbe, parasite or virus in culture
# Format: cell-based
# [1] = Influenza A virus, MDCK, read-out: percent of inhibition of viral reproduction
compound,measurement,setting,value
CC(=O)N[C@H]1[C@H]([C@H](O)[C@H](O)CO)OC(C(=O)O)=C[C@@H]1N=C(N)N [Zanamivir],Percent of inhibition of OD 490,"Zanamivir 0.3 μg alone (A or B 0 μg/ml), two values: A series, B series, added 2 hours after infection",27% and 15%
same,Percent of inhibition of OD 490,"Zanamivir 1 μg alone (A or B 0 μg/ml), two values: A series, B series, added 2 hours after infection",29% and 15%
same,Percent of inhibition of OD 490,"Zanamivir 3.3 μg alone (A or B 0 μg/ml), two values: A series, B series, added 2 hours after infection",36% and 20%
same,Percent of inhibition of OD 490,"Zanamivir 10 μg alone (A or B 0 μg/ml), two values: A series, B series, added 2 hours after infection",43% and 22%
same,Percent of inhibition of OD 490,"Zanamivir 33 μg alone (A or B 0 μg/ml), two values: A series, B series, added 2 hours after infection",49% and 28%
same,suppression of reproduction,ten times greater amount (than 3.3 mg) of zanamivir or oseltamivir without the addition of arbidol,50%
NC12CC3CC(CC(C3)C1)C2 [Amantadin],Percent of inhibition of OD 490,"Amantadin 5 μg/ml alone (A or D 0 μg/ml), two values: A series, D series, added 30 min prior to infection",50% and 30%
same,Percent of inhibition of OD 490,"Amantadin 10 μg/ml alone (A or D 0 μg/ml), two values: A series, D series, added 30 min prior to infection",56% and 38%
NC(=O)c1ncn([C@@H]2O[C@H](CO)[C@@H](O)[C@H]2O)n1 [Ribavirin],inhibition at 1 µg/mL,[1],5%
same,inhibition at 3 µg/mL,[1],25%
same,inhibition at 10 µg/mL,[1],30%
same,inhibition at 15 µg/mL,[1],38%
1-methyl-2-(n-methyl-phenylsulfomethyl)-3-carbethoxy-4-dimethylaminomethyl-5-oxy-6-bromindol,Percent of inhibition of OD 490,"A or D 1 μg/ml + Amantadin 0.3 μg/ml, added 30 min prior to infection",17%
same,Percent of inhibition of OD 490,"A or D 1 μg/ml + Amantadin 1 μg/ml, added 30 min prior to infection",18%
same,Percent of inhibition of OD 490,"A or D 1 μg/ml + Amantadin 5 μg/ml, added 30 min prior to infection",29%
same,Percent of inhibition of OD 490,"A or D 1 μg/ml + Amantadin 10 μg/ml, added 30 min prior to infection",45%
same,Percent of inhibition of OD 490,"A or D 1 μg/ml + Remantadin 0.3 μg/ml, added 30 min prior to infection",18%
same,Percent of inhibition of OD 490,"A or D 1 μg/ml + Remantadin 1 μg/ml, added 30 min prior to infection",20%
same,Percent of inhibition of OD 490,"A or D 1 μg/ml + Remantadin 5 μg/ml, added 30 min prior to infection",36%
same,Percent of inhibition of OD 490,"A or D 1 μg/ml + Remantadin 10 μg/ml, added 30 min prior to infection",42%
same,Percent of inhibition of OD 490,"A or D 1 μg/ml alone (Amantadin 0), added 30 min prior to infection",15%
same,Percent of inhibition of OD 490,"A or D 1 μg/ml alone (Remantadin 0), added 30 min prior to infection",12%
same,Percent of inhibition of OD 490,"A or D 5 μg/ml + Amantadin 0.3 μg/ml, added 30 min prior to infection",38%
same,Percent of inhibition of OD 490,"A or D 5 μg/ml + Amantadin 1 μg/ml, added 30 min prior to infection",41%
same,Percent of inhibition of OD 490,"A or D 5 μg/ml + Amantadin 5 μg/ml, added 30 min prior to infection",53%
same,Percent of inhibition of OD 490,"A or D 5 μg/ml + Amantadin 10 μg/ml, added 30 min prior to infection",70%
same,Percent of inhibition of OD 490,"A or D 5 μg/ml + Remantadin 0.3 μg/ml, added 30 min prior to infection",48%
same,Percent of inhibition of OD 490,"A or D 5 μg/ml + Remantadin 1 μg/ml, added 30 min prior to infection",44%
same,Percent of inhibition of OD 490,"A or D 5 μg/ml + Remantadin 5 μg/ml, added 30 min prior to infection",50%
same,Percent of inhibition of OD 490,"A or D 5 μg/ml + Remantadin 10 μg/ml, added 30 min prior to infection",73%
same,Percent of inhibition of OD 490,"A or D 5 μg/ml alone (Amantadin 0), added 30 min prior to infection",24%
same,Percent of inhibition of OD 490,"A or D 5 μg/ml alone (Remantadin 0), added 30 min prior to infection",20%
same,Percent of inhibition of OD 490,"A or D 10 μg/ml + Amantadin 0.3 μg/ml, added 30 min prior to infection",57%
same,Percent of inhibition of OD 490,"A or D 10 μg/ml + Amantadin 1 μg/ml, added 30 min prior to infection",70%
same,Percent of inhibition of OD 490,"A or D 10 μg/ml + Amantadin 5 μg/ml, added 30 min prior to infection",75%
same,Percent of inhibition of OD 490,"A or D 10 μg/ml + Amantadin 10 μg/ml, added 30 min prior to infection",80%
same,Percent of inhibition of OD 490,"A or D 10 μg/ml + Remantadin 0.3 μg/ml, added 30 min prior to infection",69%
same,Percent of inhibition of OD 490,"A or D 10 μg/ml + Remantadin 1 μg/ml, added 30 min prior to infection",69%
same,Percent of inhibition of OD 490,"A or D 10 μg/ml + Remantadin 5 μg/ml, added 30 min prior to infection",70%
same,Percent of inhibition of OD 490,"A or D 10 μg/ml + Remantadin 10 μg/ml, added 30 min prior to infection",75%
same,Percent of inhibition of OD 490,"A or D 10 μg/ml alone (Amantadin 0), added 30 min prior to infection",40%
same,Percent of inhibition of OD 490,"A or D 10 μg/ml alone (Remantadin 0), added 30 min prior to infection",54%
1-methyl-2-(4-oxyethyl-phenylsulfomethyl)-3-carbethoxy-4-dimethylaminomethyl-5-oxy-6-bromindol,Percent of inhibition of OD 490,"A or C 0.3 μg/ml + Oseltamivir 0.4 μg, added 2 hours after infection",15%
same,Percent of inhibition of OD 490,"A or C 0.3 μg/ml + Oseltamivir 1.2 μg, added 2 hours after infection",16%
same,Percent of inhibition of OD 490,"A or C 0.3 μg/ml + Oseltamivir 4.1 μg, added 2 hours after infection",18%
same,Percent of inhibition of OD 490,"A or C 0.3 μg/ml + Oseltamivir 12.3 μg, added 2 hours after infection",35%
same,Percent of inhibition of OD 490,"A or C 0.3 μg/ml + Oseltamivir 41 μg, added 2 hours after infection",40%
same,Percent of inhibition of OD 490,"A or C 0.3 μg/ml alone (Oseltamivir 0), added 2 hours after infection",no
same,Percent of inhibition of OD 490,"A or C 1 μg/ml + Oseltamivir 0.4 μg, added 2 hours after infection",30%
same,Percent of inhibition of OD 490,"A or C 1 μg/ml + Oseltamivir 1.2 μg, added 2 hours after infection",31%
same,Percent of inhibition of OD 490,"A or C 1 μg/ml + Oseltamivir 4.1 μg, added 2 hours after infection",41%
same,Percent of inhibition of OD 490,"A or C 1 μg/ml + Oseltamivir 12.3 μg, added 2 hours after infection",88%
same,Percent of inhibition of OD 490,"A or C 1 μg/ml + Oseltamivir 41 μg, added 2 hours after infection",90%
same,Percent of inhibition of OD 490,"A or C 1 μg/ml alone (Oseltamivir 0), added 2 hours after infection",no
same,Percent of inhibition of OD 490,"A or C 3 μg/ml + Oseltamivir 0.4 μg, added 2 hours after infection",35%
same,Percent of inhibition of OD 490,"A or C 3 μg/ml + Oseltamivir 1.2 μg, added 2 hours after infection",37%
same,Percent of inhibition of OD 490,"A or C 3 μg/ml + Oseltamivir 4.1 μg, added 2 hours after infection",60%
same,Percent of inhibition of OD 490,"A or C 3 μg/ml + Oseltamivir 12.3 μg, added 2 hours after infection",91%
same,Percent of inhibition of OD 490,"A or C 3 μg/ml + Oseltamivir 41 μg, added 2 hours after infection","100, 100%"
same,Percent of inhibition of OD 490,"A or C 3 μg/ml alone (Oseltamivir 0), added 2 hours after infection",no
same,Percent of inhibition of OD 490,"A or C 5 μg/ml + Oseltamivir 0.4 μg, added 2 hours after infection",50%
same,Percent of inhibition of OD 490,"A or C 5 μg/ml + Oseltamivir 1.2 μg, added 2 hours after infection",40%
same,Percent of inhibition of OD 490,"A or C 5 μg/ml + Oseltamivir 4.1 μg, added 2 hours after infection",96%
same,Percent of inhibition of OD 490,"A or C 5 μg/ml + Oseltamivir 12.3 μg, added 2 hours after infection",96%
same,Percent of inhibition of OD 490,"A or C 5 μg/ml + Oseltamivir 41 μg, added 2 hours after infection","100, 100%"
same,Percent of inhibition of OD 490,"A or C 5 μg/ml alone (Oseltamivir 0), added 2 hours after infection",no
same,Percent of inhibition of OD 490,"A or C 10 μg/ml + Oseltamivir 0.4 μg, added 2 hours after infection",46%
same,Percent of inhibition of OD 490,"A or C 10 μg/ml + Oseltamivir 1.2 μg, added 2 hours after infection",65%
same,Percent of inhibition of OD 490,"A or C 10 μg/ml + Oseltamivir 4.1 μg, added 2 hours after infection",95%
same,Percent of inhibition of OD 490,"A or C 10 μg/ml + Oseltamivir 12.3 μg, added 2 hours after infection",95%
same,Percent of inhibition of OD 490,"A or C 10 μg/ml + Oseltamivir 41 μg, added 2 hours after infection",98%
same,Percent of inhibition of OD 490,"A or C 10 μg/ml alone (Oseltamivir 0), added 2 hours after infection",10%
